≈ marks a conversion by molar mass, not a printed value.
Tests used:
Assay type in all cases: functional, organism-based
Fusarium culmorum = experiment: Fungicidal activity against Fusarium culmorum assessed as inhibition of hyphal growth by radial growth test
[1] = system: Globisporangium debaryanum; experiment: Fungicidal activity against Pythium debaryanum assessed as inhibition of hyphal growth by radial growth test
Macrophomina phaseolina = experiment: Fungicidal activity against Macrophomina phaseoli assessed as inhibition of hyphal growth by radial growth test
Rhizoctonia solani = experiment: Fungicidal activity against Rhizoctonia solani assessed as inhibition of hyphal growth by radial growth test

Row | SMILES | IC50 (Fusarium culmorum) | IC50 [1] | IC50 (Macrophomina phaseolina) | IC50 (Rhizoctonia solani)
1 | O=C(c1ccccc1)n1c(-c2ccccc2)cc2ccccc21 | 99.9 µg/mL (≈ 336 µM) | 81 µg/mL (≈ 272 µM) | 355 µg/mL (≈ 1190 µM) | 122 µg/mL (≈ 411 µM)
2 | O=C(O)Cc1c[nH]c2ccccc12 [INDOLE-3-ACETIC ACID] | 420 µg/mL (≈ 2400 µM) | 301 µg/mL (≈ 1720 µM) | 807 µg/mL (≈ 4610 µM) | 1010 µg/mL (≈ 5760 µM)
3 | COCC(=O)N(c1c(C)cccc1C)C(C)C(=O)OC (stereo not drawn) [METALAXYL] | 192 µg/mL (≈ 687 µM) | 211 µg/mL (≈ 755 µM) | 173 µg/mL (≈ 619 µM) | 231 µg/mL (≈ 827 µM)
4 | CC(=O)n1cc(CCCC(=O)O)c2ccccc21 | 26.6 µg/mL (≈ 108 µM) | 19 µg/mL (≈ 77.5 µM) | 59 µg/mL (≈ 241 µM) | 117 µg/mL (≈ 477 µM)
5 | O=C(O)Cc1cn(C(=O)c2ccccc2)c2ccccc12 | 523 µg/mL (≈ 1870 µM) | 171 µg/mL (≈ 612 µM) | 572 µg/mL (≈ 2050 µM) | 1240 µg/mL (≈ 4450 µM)
6 | O=C(O)CCCc1cn(C(=O)c2ccccc2)c2ccccc12 | 513 µg/mL (≈ 1670 µM) | 488 µg/mL (≈ 1590 µM) | 448 µg/mL (≈ 1460 µM) | 663 µg/mL (≈ 2160 µM)
7 | O=C(O)CCCc1c[nH]c2ccccc12 | 576 µg/mL (≈ 2830 µM) | 249 µg/mL (≈ 1230 µM) | 699 µg/mL (≈ 3440 µM) | 644 µg/mL (≈ 3170 µM)

From ChEMBL document CHEMBL3044888, “Fungicidal activity of indole derivatives against some plant pathogenic fungi” (J Pestic Sci, 2010)
